Laboratory results from patent publication US20120252773A1, “Method and composition for inhibiting cell proliferation and angiogenesis” (priority 2005, published 2012).

How the values were obtained:
[1] = system: Human Dermal Microvascular Endothelial Cells (HDMVEC); assay: Growth inhibition of HDMVEC cells, MTT, 7 days; type: cell-based; settings: Endothelial cell, HDMVEC growth, procedures of Example 3, read-out: Inhibitory Effect (IC50 Value)
Method: To measure the inhibitory activity of (2) on growth of HDMVEC cells (Clonetics, San Diego, Calif.), 2,000 cells were seeded in each well of a 96-well plate in […] of EGM medium (Clonetics) supplemented with 5% fetal bovine serum (Sigma). The plate was incubated at 37° C. in a tissue culture incubator for 24 h, and then various concentrations of (2) dissolved in EGM were added to each well in 5-10 μl aliquots. Four wells were used for each concentration. Medium in each well was renewed with fresh test solution added every other day. After 7 days of culture, the viable cells were measured using reagents from an MTT kit (Promega Corporation, Madison, Wis.), using instructions provided by the supplier. The number of viable cells in treated wells relative to those in control wells gave the percentage of inhibition.
The procedures of Example 3 were carried out to evaluate the inhibitory effect of various compounds of the invention on the growth of HDMVEC cells (Clonetics, San Diego, Calif.).

[2] = system: human endometrial Ishikawa cells; assay: Estrogenic activity, alkaline phosphatase, Ishikawa cell-based assay; settings: 72 hours
Method: Ishikawa cell based assays were run in parallel on human endometrial Ishikawa cells treated with compound (2) or with 2-methoxyestradiol. 2-Methoxyestradiol is a compound reported in the literature as an anti-angiogenic agent. Cells were cultured in 96-well plates for 48 hours in estrogen- and phenol red-free medium (DMEM/Hamm's F12 medium) containing 5% fetal bovine serum stripped of endogenous estrogens with dextran coated charcoal (Sigma). Compound (2) or other test compounds were then added to the cells and culturing was continued for an additional 72 hours. To the control cells (no (2)), 10^−9 M of […] was added. At the end of 72 hours, alkaline phosphatase activity was measured by adding 5 mM p-nitrophenyl phosphate, 0.24 mM MgCl2, and 1 M diethanolamine (pH 9.8) to the cells while the 96-well plates were kept on ice. The plates were then warmed to room temperature, and the yellow color from the production of p-nitrophenol was measured after 2-3 hours using an ELISA plate reader at a wavelength of 405 nm. The estrogenic activity was defined as the alkaline phosphatase activity stimulated by the test compounds alone as a percentage of that stimulated by estradiol at 10^−9 M. Stimulation by estradiol at 10^−9 M was taken as 100%.

[3] = system: HIF-1α protein in MDA-MB-231 human breast carcinoma cells; assay: HIF-1α protein expression by immunoblotting, MDA-MB-231 cells; type: cell-based; settings: MDA-MB-231, same hypoxic/anoxic conditions as for (2)
Method: Hypoxia experiments were performed in either of two ways. To produce a very low ambient oxygen concentration (effectively anoxia), we used a protocol in which cells were incubated in a 5% CO2-air atmosphere at 37° C. overnight and then placed in aluminum gas-exchange chambers maintained at 37° C. (Laderoute K R et al. Mol Cell Biol 22: 2515-2523, (2002); Laderoute K R et al. Mol Cell Biol 24: 4128-4137, (2004)). The chambers containing the cells were then placed in a 37° C. circulating water bath and the original atmosphere was repeatedly exchanged with 5% CO2-95% N2 using a manifold equipped with a vacuum pump and a gas cylinder. Atmospheric oxygen partial pressure (pO2) values of less than or equal to 0.01% (relative to air at pO2 of about 21%) can be achieved inside the chambers using this system. Following various hypoxic exposures, the chambers were opened an anaerobic glove box (Bactron X, Sheldon Manufacturing Inc., Cornelius, Oreg.; attached to a cylinder containing 5% CO2-95% N2) to prepare cell lysates without significant reoxygenation. All manipulations of hypoxic cells were performed in the anaerobic glove box. Atmospheric oxygen levels in both the chambers and the glove box have been measured and calibrated using a polarographic oxygen electrode (Oxygen Sensors, Inc., Norristown, Pa.). […]
(§1) We used immunoblotting to evaluate the experiments. […] After spinning at 9,000×g for 5 min at 4° C., the protein concentrations of the supernatants were determined by using a bicinchoninic acid assay (Pierce Biotechnology). […] Primary antibody binding was detected and visualized by using the ECL Plus Western Blotting Detection System (Amersham Pharmacia Biotech) according to the supplier's instructions. HIF-1α protein was detected by using an anti-HIF-1α monoclonal antibody (Novus Biologicals, Cat. No. NB100-123; diluted 1:500) and a horseradish peroxidase-conjugated anti-mouse IgG secondary antibody (Santa Cruz Biotechnology, Cat. No. sc-2062; diluted 1:20,000). […]

[4] = system: HIF-1α protein in PC-3 prostate cancer cells; assay: HIF-1α protein expression by immunoblotting, PC-3 cells; type: cell-based, human; settings: PC-3, same hypoxic/anoxic conditions as for (2)
Method: Hypoxia experiments were performed in either of two ways. To produce a very low ambient oxygen concentration (effectively anoxia), we used a protocol in which cells were incubated in a 5% CO2-air atmosphere at 37° C. overnight and then placed in aluminum gas-exchange chambers maintained at 37° C. (Laderoute K R et al. Mol Cell Biol 22: 2515-2523, (2002); Laderoute K R et al. Mol Cell Biol 24: 4128-4137, (2004)). The chambers containing the cells were then placed in a 37° C. circulating water bath and the original atmosphere was repeatedly exchanged with 5% CO2-95% N2 using a manifold equipped with a vacuum pump and a gas cylinder. Atmospheric oxygen partial pressure (pO2) values of less than or equal to 0.01% (relative to air at pO2 of about 21%) can be achieved inside the chambers using this system. Following various hypoxic exposures, the chambers were opened an anaerobic glove box (Bactron X, Sheldon Manufacturing Inc., Cornelius, Oreg.; attached to a cylinder containing 5% CO2-95% N2) to prepare cell lysates without significant reoxygenation. All manipulations of hypoxic cells were performed in the anaerobic glove box. Atmospheric oxygen levels in both the chambers and the glove box have been measured and calibrated using a polarographic oxygen electrode (Oxygen Sensors, Inc., Norristown, Pa.). Hypoxia experiments involving a pO2 of 1% were performed by equilibrating the glove box with an atmosphere of 1% O2 5% CO2 […] held at 37° C. with a circulating fan. Cells were incubated inside a humidified space in the glove box and the medium on the cells was gently and continually agitated by using a rotary shaker. For these experiments, we used RAW 264.7 immortalized mouse macrophages as normal control cells, PC-3 prostate cancer cells, and MDA-MB-231 breast cancer cells, all available from ATCC.
as §1, with “experiments. Nuclear lysates were used to detect HIF-1α protein by immunoblotting (Murphy B J et al. Biochem Biophys Res Commun (In Press): 2005). Briefly, cells were placed on ice in air or on Super Ice® cold packs in the anaerobic glove box and the medium was removed.” for “experiments.”

Compound | IC50 [1] | further results
C[C@@H]1Cc2cc(O)ccc2C2CCC3(C)C(CCOCCN(C)C)CCC3C21 (some centres unmarked) | 4 µM | –
CN(C)CCOC/C=C1\CCC2C3CCc4cc(O)ccc4C3CCC12C (centres unmarked) | 1.8 µM | –
CCN(CC)Cc1ccc(OC/C=C2\CCC3C4C(CCC23C)c2ccc(O)cc2C[C@H]4C)c(OC)c1 (some centres unmarked) | 1.5 µM | –
CCN(CC)Cc1ccc(OCCC2CCC3C4C(CCC23C)c2ccc(O)cc2C[C@H]4C)c(OC)c1 (some centres unmarked) | 2 µM | –
CCN(CC)Cc1ccc(OCCC2CCC3C4CCc5cc(O)ccc5C4CCC23C)c(OC)c1 (centres unmarked) | 2 µM | –
COc1cc(CO)ccc1OCCC1CCC2C3C(CCC12C)c1ccc(O)cc1C[C@H]3C (some centres unmarked) | 5 µM | –
CCN(CC)Cc1cc(OC)c(OCCC2CCC3C4C(CCC23C)c2ccc(O)cc2C[C@H]4C)c(OC)c1 (some centres unmarked) | 3.6 µM | –
COc1cc(CN2CCCC2)ccc1OCCC1CCC2C3C(CCC12C)c1ccc(O)cc1C[C@H]3C (some centres unmarked) | 1.2 µM | –
COc1cc(CN2CCCCC2)ccc1OCCC1CCC2C3C(CCC12C)c1ccc(O)cc1C[C@H]3C (some centres unmarked) | 0.6 µM | –
CCN(CC)Cc1ccccc1OC/C=C1\CCC2C3C(CCC12C)c1ccc(O)cc1C[C@H]3C (some centres unmarked) | 4.7 µM | –
COC(=O)/C=C/c1ccc(OC/C=C2\CCC3C4C(CCC23C)c2ccc(O)cc2C[C@H]4C)cc1 (some centres unmarked) | 5.3 µM | –
C[C@@H]1Cc2cc(O)ccc2C2CCC3(C)C(CCOc4ccc(C=O)cc4Cl)CCC3C21 (some centres unmarked) | 10 µM | –
COc1cc2c(cc1O)CC[C@@H]1[C@@H]2CC[C@]2(C)[C@@H](O)CC[C@@H]12 [2-methoxyestradiol, 2-Methoxyestradiol, reference compound] | – | estrogenic activity (alkaline phosphatase stimulation relative to estradiol at 10^−9 M) [2]: large amount of estrogenic activity; HIF-1α protein expression, standard HIF-1 inhibitors [3]: did not find any effect; HIF-1α protein expression, standard HIF-1 inhibitors [4]: did not find any effect
OCc1ccc(-c2nn(Cc3ccccc3)c3ccccc23)o1 [YC-1, reference compound] | – | HIF-1α protein expression, standard HIF-1 inhibitors [3]: did not find that YC-1, another standard HIF-1 inhibitor, could reproducibly inhibit; HIF-1α protein expression, standard HIF-1 inhibitors [4]: did not find that YC-1, another standard HIF-1 inhibitor, could reproducibly inhibit
